# Experimental data from PubChem BioAssay AID1996.
# Settings: buffer; pH 7.4; 200.0 µM
row,SMILES,solubility kinetic
1,COc1cccc(NC2=NCCCCC2)c1,> 0.0327 mg/mL
2,Cc1ccc(-n2c(=O)[nH]c3ncccc3c2=O)cc1,0.0069 mg/mL
3,O=C(NCCCN1CCCC1=O)Nc1ccccc1F,> 0.0419 mg/mL
4,O=C1c2ccccc2C(=O)N1CCOc1ccc(F)cc1,0.004 mg/mL
5,COc1ccc(NC(=S)NC(=O)c2ccc3c(c2)OCCO3)cc1,0.0021 mg/mL
6,Cc1ccc(C(=O)O/N=C(\N)c2ccccn2)c(Cl)c1,0.0424 mg/mL
7,C[N+](C)(C)CC(O)CC(=O)O.[Cl-] (configuration not stated),> 0.0296 mg/mL
8,Cc1ccc(NC(=O)COc2ccc(Br)cc2CO)cc1S(=O)(=O)N1CCOCC1,0.0211 mg/mL
9,c1ccc(-c2cnc(CN3CCN(c4ccccc4)CC3)o2)cc1,0.04 mg/mL
10,COc1cc(/C=C/C(=O)O)cc(S(=O)(=O)Nc2ccccc2C(=O)NCc2ccco2)c1OC,> 0.073 mg/mL
11,Cc1cccc(N(Cc2ccccc2)C(=O)c2ccccc2F)c1,0.0115 mg/mL
12,O=C(Nc1ccc(Nc2ccccc2)cc1)Nc1ccccc1Cl,< 0.0002 mg/mL
13,Cc1ccc2nc(COC(=O)c3ccc(Cl)nc3)cc(=O)n2c1,0.0073 mg/mL
14,O=c1[nH]c(=S)n(C2CC2)c(O)c1C=NCCN1CCOCC1,> 0.0487 mg/mL
15,CCOC(=O)NC(=O)c1cn(CCNCCO)c(=O)[nH]c1=O,> 0.0471 mg/mL
16,COc1ccc(NC(=O)CS(=O)(=O)c2ccccc2)cc1,> 0.0458 mg/mL
17,COc1ccc(CCNC2=NCCS2)cc1OC,0.0297 mg/mL
18,CCC(C(=O)NCCc1ccc(S(N)(=O)=O)cc1)c1ccccc1 (configuration not stated),> 0.052 mg/mL
19,N#Cc1c(NC(=O)c2ccco2)sc2c1CCC2,0.0094 mg/mL
20,COc1ccc(C(C)=O)cc1CC(=O)NCCCn1ccnc1,> 0.0473 mg/mL
21,CN=c1scc(-c2ccccc2F)n1/N=C/c1ccc(O)c(O)c1O,> 0.0539 mg/mL
22,CS(=O)(=O)N1CCCC(C(=O)Nc2ccccc2C(F)(F)F)C1 (configuration not stated),> 0.0526 mg/mL
23,O=C1NC(=S)NC(=O)C1C1CCCCC1,0.0301 mg/mL
24,O=C(Nc1ccc(S(=O)(=O)N2CCc3ccccc32)cc1)C(F)(F)F,> 0.0556 mg/mL

row,SMILES,solubility kinetic
1,COc1ccc(-c2nnc(SCC(=O)Nc3c(Cl)cc(Cl)cc3C(=O)O)o2)cc1,> 0.0681 mg/mL
2,Cc1cc(O)c(C(=O)Cc2csc(C)n2)c(O)c1,0.0041 mg/mL
3,CCn1c(=N)n(CC(O)COc2ccc(C)cc2)c2ccccc21.Cl (configuration not stated),> 0.0543 mg/mL
4,Cc1ccc2nc3c(nc2c1C)C(O)=C3O,0.0247 mg/mL
5,O=C(c1cc2c(s1)-c1ccccc1S(=O)(=O)C2)N1CCCC1,0.0476 mg/mL
6,Cc1ccc(CNS(=O)(=O)c2ccc(C(F)(F)F)cc2)n1C,0.0306 mg/mL
7,Cc1cc2ccccn2c1C(=O)c1ccc(C#N)cc1,0.0019 mg/mL
8,O=C(Cn1cc([N+](=O)[O-])ccc1=O)NCC(=O)Nc1ccc(F)c(F)c1F,0.0092 mg/mL
9,O=C(CN1CCCCC1)N1CCN(c2ccccc2)CC1,> 0.0431 mg/mL
10,COc1ccc(-n2c(SCC(=O)N(C)C3CCS(=O)(=O)C3)nc3ccc(O)cc3c2=O)cc1OC (configuration not stated),0.0353 mg/mL
11,Fc1ccc(NC(=S)NCCN2CCOCC2)c(F)c1F,> 0.0479 mg/mL
12,CCCCSCCCNC(=O)Nc1ccc(CC)cc1,0.0036 mg/mL
13,CCN(CC(=O)NCc1ccc(F)cc1)C(=O)C1CC1C (configuration not stated),> 0.0439 mg/mL
14,Cc1ccc(-c2noc(CN(C)C(=O)c3ccoc3C)n2)cc1,0.0344 mg/mL
15,CN(C)c1cc(-c2ccc(Cl)cc2Cl)oc(=O)c1Cl,0.0033 mg/mL
16,Cc1ccc(C)c(NC(=O)CCN2CCN(C)CC2)c1,> 0.0413 mg/mL
17,O=C(Nc1ccccc1C(=O)NC1CC1)c1ccc([N+](=O)[O-])o1,> 0.0473 mg/mL
18,CC(=O)Nc1ccc(Nc2cc(C)nc3ccccc23)cc1,0.0402 mg/mL
19,O=C(NCc1cccnc1)Nc1ccc2c(c1)OCO2,> 0.0407 mg/mL
20,O=C(COC(=O)c1c(F)cccc1F)Nc1ccc(N2CCCCC2)cc1,0.0052 mg/mL
21,O=C(OCc1cnc(Cl)s1)c1cccs1,0.0265 mg/mL
22,CC(C)Cn1c(SCC(=O)N2CCc3ccccc3C2)nc(O)cc1=O,> 0.056 mg/mL
23,NCC(c1ccccc1Cl)c1c[nH]c2ccccc12 (configuration not stated),> 0.0406 mg/mL
